Measurements from US12465605B2, “Methods and materials for gender-dependent treatment of cardiovascular dysfunction” (Mayo Foundation for Medical Education and Research, priority 2019, dated 2025).

Key:
[1] = molecular target: T1, sGC (Mus musculus, UniProt O54865); experiment: sGC signaling (phospho-VASP239) in mouse aortic valve interstitial cells; assay type: cell-based; conditions: otherwise naïve mVICs, vs vehicle-treated cells
T1 construct: endogenous in cells; host or cells: primary mouse aortic valve interstitial cells (mVICs) from C57BL6/J mice
T1 sequence (O54865 1-620): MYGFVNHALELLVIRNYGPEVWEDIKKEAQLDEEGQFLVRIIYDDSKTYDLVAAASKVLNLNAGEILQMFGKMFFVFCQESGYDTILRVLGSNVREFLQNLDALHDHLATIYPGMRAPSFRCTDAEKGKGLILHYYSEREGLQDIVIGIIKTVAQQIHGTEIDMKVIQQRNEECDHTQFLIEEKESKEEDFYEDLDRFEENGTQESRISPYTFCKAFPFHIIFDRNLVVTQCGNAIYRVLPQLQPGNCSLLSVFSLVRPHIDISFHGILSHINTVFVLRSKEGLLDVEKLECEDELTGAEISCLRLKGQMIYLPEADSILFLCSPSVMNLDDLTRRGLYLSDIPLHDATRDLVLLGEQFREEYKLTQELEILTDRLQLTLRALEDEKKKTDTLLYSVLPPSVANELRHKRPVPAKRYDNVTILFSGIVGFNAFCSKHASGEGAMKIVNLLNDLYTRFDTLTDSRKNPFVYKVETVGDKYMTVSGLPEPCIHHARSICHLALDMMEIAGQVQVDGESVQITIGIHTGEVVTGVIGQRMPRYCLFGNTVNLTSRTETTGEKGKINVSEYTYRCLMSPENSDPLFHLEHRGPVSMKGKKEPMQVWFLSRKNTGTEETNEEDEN
T1 sequence (Q9ERL9 1-691 partner): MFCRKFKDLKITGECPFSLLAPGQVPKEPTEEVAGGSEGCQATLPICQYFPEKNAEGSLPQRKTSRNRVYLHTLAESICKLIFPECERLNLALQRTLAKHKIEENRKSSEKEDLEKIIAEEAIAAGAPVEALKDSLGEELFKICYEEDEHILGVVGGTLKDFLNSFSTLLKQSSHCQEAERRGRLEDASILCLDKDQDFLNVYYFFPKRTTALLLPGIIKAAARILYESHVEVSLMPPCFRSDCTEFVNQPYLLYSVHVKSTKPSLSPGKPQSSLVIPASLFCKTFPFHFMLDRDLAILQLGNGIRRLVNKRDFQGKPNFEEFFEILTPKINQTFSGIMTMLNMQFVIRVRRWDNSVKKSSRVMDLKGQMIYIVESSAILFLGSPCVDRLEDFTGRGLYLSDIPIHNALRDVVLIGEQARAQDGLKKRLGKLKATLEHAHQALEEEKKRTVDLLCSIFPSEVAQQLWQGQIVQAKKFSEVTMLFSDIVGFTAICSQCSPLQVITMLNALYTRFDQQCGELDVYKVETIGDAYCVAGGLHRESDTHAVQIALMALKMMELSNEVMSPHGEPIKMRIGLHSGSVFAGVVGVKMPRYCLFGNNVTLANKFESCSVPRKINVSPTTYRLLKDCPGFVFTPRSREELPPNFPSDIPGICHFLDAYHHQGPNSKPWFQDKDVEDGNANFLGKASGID
Method: To confirm that ataciguat effectively activated sGC in cells, mouse aortic valve interstitial cells (mVICs) were isolated from C57BL6/J mice treated with ataciguat or other sGC agonists as internal controls. […] To determine whether ataciguat could attenuate signaling cascades central to the initiation and progression of valve calcification in vitro, cells were treated with BMP2 with or without ataciguat. In these studies, ataciguat reduced phospho-SMAD1/5/8 signaling (e.g., canonical BMP signaling) as well as expression of osteogenic genes induced by BMP2 (e.g., osterix).

[2] = system: ldlr^−/−/apoB^100/100 mice; experiment: ldlr-deficient, apoB100-only mice on western diet with established aortic valve disease (FCAVS); assay type: in vivo, mouse; conditions: for relative collagen fiber thicknesses: picrosirius red
Description: Pre-clinical animal studies: ldlr^−/−/apoB^100/100 mice are low density lipoprotein receptor-deficient, apolipoprotein B100-only mice that consistently develop severe, hemodynamically significant calcific aortic valve stenosis. Thus, these mice develop stenosis in a manner suitable for studying the effects of pharmacological interventions on initiation and progression of calcific aortic valve stenosis.
Two groups of ldlr^−/−/apoB^100/100 mice were placed on Western Diet (WD) for six months, a time point that allowed the mice to develop mild-to-moderate valvular stenosis. At the six-month time point, mice were randomized into two groups: • (1) continued western diet (WD)/continued disease progression group, or • (2) continued western diet+ataciguat in food (WD+ATA)/treatment group.
At the nine-month time point, mice underwent echocardiography (high resolution ultrasound) and blood pressure (tail cuff) measurement, and were sacrificed for tissue and molecular analyses of valvular tissue (histology, immunohistochemistry, quantitative real-time RT-PCR).
A therapeutically-relevant treatment strategy in which ldlr-deficient, apoB100-only mice were fed a western diet for six months (to develop mild/moderate FCAVS) followed by western diet plus ataciguat (150 ppm mixed in food).

sGC-dependent signaling (phospho-VASP^239 levels) [1]: significantly increased
SMILES: O=C(Nc1ccc(S(=O)(=O)N2CCOCC2)cc1)c1cc(Cl)ccc1NS(=O)(=O)c1ccc(Cl)s1 [ataciguat, 5-chloro-2-[[(5-chloro-2-thienyl)sulfonyl]amino]-N-[4-(4-morpholinylsulfonyl)phenyl]-benzamide]
ejection fraction ([2]; WD-fed mice, male and female): not improved further
canonical TGFβ signaling (SMAD2/3 phosphorylation) in valve tissue ([2]; both male and female mice): increased
Col1a1 expression (mRNA) ([2]; female mice): significantly reduced
expression of Col15a1 (mRNA) ([2]; female mice): tended to be reduced
relative collagen fiber thicknesses ([2]; female mice): increase the fraction of thinner fibers
aortic valve function (cusp separation distance by echocardiography), male versus female ([2]; long-term treatment): only male mice received a therapeutic benefit
calcification in valve tissue ([2]; male and female animals): reduced
SMAD1/5/8 phosphorylation in valve tissue ([2]; male and female mice, three months): significantly attenuated
markers of osteogenesis Runx2 and SPP1 (mRNA) ([2]; male and female mice, three months, RT-PCR): reduced
diastolic function (E/e′) ([2]; male mice): significantly improved
expression of Col15a1 (mRNA) ([2]; male mice): increased
expression of collagen 1a1 (mRNA) ([2]; male mice): did not significantly affect
valvular calcium, male versus female ([2]; male mice compared with female mice): Greater reductions in valvular calcium
progression of valvular dysfunction and associated reductions in left ventricular diastolic function ([2]; male mice only, long-term treatment): significantly attenuated
relative collagen fiber thicknesses ([2]; male mice): did not impact
MMP2 expression ([2]; male or female mice): not altered
pVASP^239 in aortic valve tissue ([2]; mice of both genders, 150 ppm in food, immunohistochemistry): significantly increased
blood pressure ([2]; mice of either gender, 150 ppm in food): did not alter
expression of the SMAD2/3 target genes CTGF and COL1A1 ([2]; only in female mice): paradoxically reduced
